Test results reported in PubChem BioAssay (NCI).
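Results reflect a 48-hour exposure of cells in 96-well plates to compound at five concentrations. GI50 marks 50% less growth. TGI: concentration producing complete growth inhibition.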

Assays:
Experiment in all cases: NCI anticancer screen, dose series, 48 h
[1] = test system: PC-3 prostate
[2] = test system: HCT-116 colon
[3] = test system: EKVX NSCLC
[4] = test system: IGROV1 ovarian
[5] = test system: OVCAR-4 ovarian
[6] = test system: T-47D breast
[7] = test system: NCI-H23 lung
[8] = test system: SF-268 CNS
[9] = test system: SNB-19 CNS
[10] = test system: LOX IMVI melanoma
[11] = test system: OVCAR-5 ovarian
[12] = test system: HOP-92 NSCLC
[13] = test system: UACC-62 melanoma
[14] = test system: COLO 205 colon
[15] = test system: OVCAR-3 ovarian
[16] = test system: KM12 colon
[17] = test system: SK-MEL-2 melanoma
[18] = test system: SF-295 CNS
[19] = test system: CCRF-CEM leukemia
[20] = test system: M14 melanoma
[21] = test system: NCI-H522 lung
[22] = test system: SK-MEL-28 melanoma
[23] = test system: CAKI-1 renal
[24] = test system: HL-60(TB) leukemia
[25] = test system: A549 NSCLC
[26] = test system: HOP-62 NSCLC
[27] = test system: DU-145 prostate
[28] = test system: MDA-MB-435
[29] = test system: HCT-15 colon
[30] = test system: ACHN renal
[31] = test system: SK-MEL-5 melanoma
[32] = test system: HT29 colon
[33] = test system: MOLT-4 leukemia
[34] = test system: SN12C renal
[35] = test system: HS 578T breast
[36] = test system: RPMI-8226 leukemia
[37] = test system: 786-0 renal
[38] = test system: BT-549 breast
[39] = test system: NCI-H460 lung
[40] = test system: UO-31 renal
[41] = test system: A498 renal
[42] = test system: SR leukemia
[43] = test system: TK-10 renal
[44] = test system: U251 CNS
[45] = test system: HCC-2998 colon
[46] = test system: OVCAR-8 ovarian
[47] = test system: SNB-75 CNS
[48] = test system: MALME-3M melanoma
[49] = test system: RXF 393 renal
[50] = test system: SW-620 colon
[51] = test system: NCI-H226 lung
[52] = test system: MCF7 breast
[53] = test system: K-562 leukemia
[54] = test system: UACC-257 melanoma
[55] = test system: SK-OV-3 ovarian
[56] = test system: NCI/ADR-RES ovarian
[57] = test system: SF-539 CNS
[58] = test system: MDA-MB-231 breast

In the case of O=C(Nc1cccc(Cl)c1)Nc1nc2ccc([N+](=O)[O-])cc2s1, the GI50 [1] was 0.317 µM, the TGI [1] was 1.19 µM and the GI50 [2] was 0.33 µM. It also gave a TGI [2] of 1.19 µM, a GI50 [3] of 0.558 µM and a TGI [3] of 3.54 µM. For the same molecule, the GI50 [4] was 0.617 µM, the TGI [4] was 3.88 µM and the GI50 [5] was 0.429 µM. The TGI [5] was 2.93 µM, the GI50 [6] was 0.307 µM and the TGI [6] was 1.85 µM. For the same molecule, the GI50 [7] was 0.304 µM, the TGI [7] was 0.989 µM and the GI50 [8] was 0.685 µM. It also gave a TGI [8] of 3.55 µM, a GI50 [9] of 0.531 µM and a TGI [9] of 4.28 µM. It also gave a GI50 [10] of 0.436 µM, a TGI [10] of 1.63 µM and a GI50 [11] of 1.79 µM. For the same molecule, the TGI [11] was 6.83 µM, the GI50 [12] was 0.145 µM and the TGI [12] was 0.454 µM. The GI50 [13] was 0.359 µM, the TGI [13] was 1.46 µM and the GI50 [14] was 1.26 µM. The TGI [14] was 2.84 µM, the GI50 [15] was 0.402 µM and the TGI [15] was 1.75 µM. For the same molecule, the GI50 [16] was 0.466 µM, the TGI [16] was 2.12 µM and the GI50 [17] was 0.434 µM. The TGI [17] was 2.03 µM, the GI50 [18] was 0.527 µM and the TGI [18] was 1.97 µM. For the same molecule, the GI50 [19] was 0.375 µM, the TGI [19] was 3.82 µM and the GI50 [20] was 0.66 µM. It also gave a TGI [20] of 2.54 µM, a GI50 [21] of 0.331 µM and a TGI [21] of 2.01 µM. It also gave a GI50 [22] of 0.423 µM, a TGI [22] of 1.67 µM and a GI50 [23] of 0.483 µM. It also gave a TGI [23] of 2.24 µM, a GI50 [24] of 0.365 µM and a TGI [24] of 1.51 µM. The GI50 [25] was 0.779 µM, the TGI [25] was 7.46 µM and the GI50 [26] was 0.911 µM. The TGI [26] was 3.55 µM, the GI50 [27] was 0.693 µM and the TGI [27] was 8.47 µM. It also gave a GI50 [28] of 0.524 µM, a TGI [28] of 2.29 µM and a GI50 [29] of 0.466 µM. The TGI [29] was 2.03 µM, the GI50 [30] was 0.525 µM and the TGI [30] was 2.56 µM. It also gave a GI50 [31] of 0.315 µM, a TGI [31] of 1.1 µM and a GI50 [32] of 2.82 µM. It also gave a TGI [32] of 10.7 µM, a GI50 [33] of 0.375 µM and a TGI [33] of 2.34 µM. For the same molecule, the GI50 [34] was 0.447 µM, the TGI [34] was 2.52 µM and the GI50 [35] was 0.675 µM. It also gave a TGI [35] of 3.34 µM, a GI50 [36] of 0.263 µM and a TGI [36] of 0.632 µM. For the same molecule, the GI50 [37] was 0.409 µM, the TGI [37] was 1.69 µM and the GI50 [38] was 0.415 µM. The TGI [38] was 1.4 µM, the GI50 [39] was 0.398 µM and the TGI [39] was 1.97 µM. It also gave a GI50 [40] of 0.388 µM, a TGI [40] of 1.79 µM and a GI50 [41] of 0.244 µM. For the same molecule, the TGI [41] was 0.973 µM, the GI50 [42] was 0.35 µM and the TGI [42] was 1.91 µM. The GI50 [43] was 0.808 µM, the TGI [43] was 5.49 µM and the GI50 [44] was 0.452 µM. The TGI [44] was 3.55 µM, the GI50 [45] was 0.465 µM and the TGI [45] was 2.21 µM. It also gave a GI50 [46] of 1.12 µM, a TGI [46] of 11.2 µM and a GI50 [47] of 0.539 µM. The TGI [47] was 3.17 µM, the GI50 [48] was 0.367 µM and the TGI [48] was 1.63 µM. For the same molecule, the GI50 [49] was 0.458 µM, the TGI [49] was 1.79 µM and the GI50 [50] was 0.49 µM. It also gave a TGI [50] of 2.39 µM, a GI50 [51] of 0.623 µM and a TGI [51] of 2.5 µM. For the same molecule, the GI50 [52] was 0.452 µM, the TGI [52] was 3.05 µM and the GI50 [53] was 0.355 µM. For the same molecule, the TGI [53] was 1.42 µM, the GI50 [54] was 0.532 µM and the TGI [54] was 3.49 µM. It also gave a GI50 [55] of 0.736 µM, a TGI [55] of 5.17 µM and a GI50 [56] of 0.403 µM. The TGI [56] was 1.82 µM, the GI50 [57] was 0.603 µM and the TGI [57] was 2.17 µM. The GI50 [58] was 0.676 µM and the TGI [58] was 3.05 µM.
